Measured values: US11286258B2, “Nature-inspired anticancer and antibacterial motifs and pharmaceutical composition thereof” (University of Sharjah, priority 2020, dated 2022)
Values after ≈ are worked out from the molar mass of the structure shown.

Legend:
[1] = test system: JIMT1; experiment: MTT cell viability, JIMT1; assay type: cell-based; conditions: Homo sapiens, JIMT-1; breast cancer; 48 h of drug treatment; average of three experiments
Description: (§1) Cell viability studies: Cell viability was assessed using the MTT assay as described before. In brief, all cancer cell lines were seeded at a density of 4×10^4/well in 96 well flat-bottom plates. After 24 h from seeding, cells were treated with the synthesized compounds and left for an incubation period of 48 h. Upon reaching the indicated time point, the media was removed and replaced with 200 μL fresh media containing 0.5 mg/mL of MTT tetrazolium dye (Sigma-Aldrich). Cells were then incubated with MTT solution for 2 h at 37° C. The resultant formazan crystals were dissolved in 200 μl/well of DMSO and absorbance was measured at 570 nm using a microplate reader (Thermo Scientific).

[2] = test system: SKBR3; experiment: MTT cell viability, SKBR3; assay type: cell-based; conditions: Homo sapiens, SK-BR-3; breast cancer; 48 h of drug treatment; average of three experiments
Description: as §1

[3] = test system: Hela cells; experiment: Western blot, autophagy- and iron metabolism-related proteins, Hela; assay type: cell-based, human
Description: Western Blotting (autophagy- and iron metabolism-related proteins): Cells were grown in DMEM supplemented with 10% FBS and 1×PEST (Penicillin and streptomycin antibiotics) at 37° C. in incubator having humidified atmosphere with 5% CO2. The media were removed and cells were washed twice with 1× cold PBS. Cells lysis was performed with RIPA lysis buffer containing (150 mM sodium chloride, 1.0% NP-40, 0.1% SDS, 50 mM Tris pH 8.0, 0.5% sodium deoxycholate supplemented with protease inhibitors cocktail). Cells were kept on icebox during the lysis process. Cold lysis buffer was added to each well directly and then cells were scraped and collected in 1.5 ml Eppendorf tube. Cell lysis was kept on icebox for 20 minutes and then centrifuged at 4° C. for 10 minutes. The supernatant was collected and the pellet was discarded. After, protein quantification, samples were boiled in 5× loading buffer at 95° C. for 5 minutes. After completion of the gel running and transfer process, the membrane was stained with ponceau solution. After that, the membrane was washed with 1×TBST and then blocked in 5% non-fat dry milk for 1 hr at room temperature. The membrane was washed 3 times with 1×TBST and then incubated with indicated primary antibodies at 4° C. overnight. Primary antibodies were removed; the membrane was washed 3 times with 1×TBST and then incubated with secondary antibodies for 2 h at room temperature. Secondary antibodies were diluted in 5% non-fat dry milk in 1× TB ST. After removal of the secondary antibody, the membrane was washed 3 times with 1×TBST. The membrane was incubated in ECL solution and the signal was developed using Gel Doc system from Biorad.

[4] = test system: MDA-MB-231; experiment: MTT cell viability, MDA-MB-231; assay type: cell-based; conditions: Homo sapiens, breast cancer, 48 h of drug treatment, average of three experiments
Description: as §1

[5] = test system: E. coli ATCC25922; experiment: MIC broth microdilution, E. coli ATCC25922; assay type: cell-based, Escherichia coli; conditions: Escherichia coli, ATCC25922; not MDR; overnight incubation
Description: (§2) Antibacterial activity: The compounds were tested for the minimum inhibitory concentrations (MIC), which is the lowest concentration of a chemical required to inhibit visible microbial growth following overnight incubation. MIC values were determined using broth microdilution method according to the Clinical and Laboratory Standards Institute guidelines (CLSI, 2015, M07-A10). Mueller-Hinton broth was used as a culture medium in all the experiments. Exponentially growing bacterial cells were prepared in Mueller-Hinton broth at a concentration of approximately 5×10^5 CFU/mL. Two-fold serial dilutions of the test compound (8 concentrations ranged between 100-0.78 μg/mL) were tested. […] In each experiment, solvent (DMSO) was used as a negative control, un-treated control (composing of bacteria in Mueller-Hinton broth) was used as a growth control, blank (culture media alone) was used as sterility control. The 96-well microplate with the test compounds was incubated overnight at 37° C. Turbidity in wells indicated bacterial growth.
(§3) The compounds were tested on six MDR Gram-positive bacteria including three clinical isolates of methicillin-resistant Staphylococcus aureus (MRSA-1, MRSA-2 and MRSA-3) and three reference MRSA strains (ATCC33591, ATCC33592 and ATCC700699). They were also tested on three MDR Gram-negative bacteria including New Delhi metallo-beta-lactamase (NDM-1) positive, carbapenem-resistant E. coli (ATCC BAA2469), extended-spectrum beta-lactamase (ESBL) producing, colistin-resistant E. coli (CDC-AR-0346) and carbapenem-resistant Acinetobacter baumannii (ATCC BAA1605), in addition to two non-MDR bacteria from the same species, namely E. coli (ATCC 25922) Acinetobacter baumannii (ATCC 19606).

[6] = test system: SKOV3; experiment: MTT cell viability, SKOV3; assay type: cell-based; conditions: Homo sapiens, SK-OV-3; 48 h of drug treatment; average of three experiments
Description: as §1

[7] = test system: AGS; experiment: MTT cell viability, AGS; assay type: cell-based; conditions: Homo sapiens, stomach cancer, 48 h of drug treatment, average of three experiments
Description: as §1

[8] = test system: MRSA-ATCC33592; experiment: MIC broth microdilution, MRSA ATCC33592; assay type: cell-based, Staphylococcus aureus; conditions: Staphylococcus aureus; overnight incubation, Mueller-Hinton broth; read-out: MIC MRSA-ATCC33592
Description: as §2, §3

[9] = test system: MDA-MB-468; experiment: MTT cell viability, MDA-MB-468; assay type: cell-based; conditions: Homo sapiens, breast cancer, 48 h of drug treatment, average of three experiments
Description: as §1

[10] = test system: HCT-116 cells; experiment: Western blot, apoptotic biomarkers, tumor suppressor genes and oncogenes, HCT-116; assay type: cell-based, human; conditions: for PARP cleavage / Cleavage of caspase7 and caspase-3 / Levels of p53 proteins / c-Myc oncogene level: HCT-116; for PARP cleavage / Cleavage of caspase7 and caspase-3: 1 to 4 μM, 48 h; for Cleavage of caspase7 and caspase-3: clear at 4 μM; for Levels of p53 proteins: at higher concentrations; for c-Myc oncogene level: dose-dependent manner; for Levels of BAX: treated cells, parallel to decreased p53
Description: (§4) Western blotting (apoptotic biomarkers, tumor suppressor genes and oncogenes): Hep3B and HCT-116 cells were treated with 1f and 1h compounds with increasing concentrations from 1 to 4 μM for 48 h. After reaching the time point, proteins were extracted from the collected cells after their lyses, and protein quantification was performed using a Detergent compatible (DC) protein assay kit (Bio-Rad) following the manufacturer's instructions. 12% SDS-polyacrylamide gels were used to separate the proteins, following the proteins were transferred onto nitrocellulose membrane using a semi-dry transfer cell. After transfer, membranes were incubated with primary antibodies and the incubation was left overnight at 4° c. The following antibodies were implicated: anti-β actin (Cell Signalling #4970), anti-caspase3 (Cell Signalling #14220), anti-caspase-7 (Cell Signalling33 #9492), anti-PARP (Cell Signalling #9532), anti-P53 (Cell Signalling #2527), anti-C-myc (Cell Signalling #18583), and anti-BAX (#5023). Finally, membranes were incubated with secondary conjugated with horseradish peroxidase. The indicated proteins were detected by chemiluminescence.

[11] = test system: Hep3B cells; experiment: Western blot, apoptotic biomarkers, tumor suppressor genes and oncogenes, Hep3B; assay type: cell-based, human; conditions: for PARP cleavage / Cleavage of caspase7 and caspase-3: 1 to 4 μM, 48 h; for Cleavage of caspase7 and caspase-3: clear at 4 μM; for c-Myc oncogene level: dose-dependent manner
Description: as §4

[12] = test system: 6 MRSA strains; experiment: MIC, panel of 6 MRSA strains; assay type: cell-based; conditions: Staphylococcus aureus, across the panel of tested Gram-positive strains, read-out: MIC against all the 6 MRSA strains
Description: as §2, §3

IC50 [2] [µM]	IC50 [4] [µM]	MIC [5] [µg/mL]	IC50 [6] [µM]	IC50 [7] [µM]	MIC [8] [µg/mL]	IC50 [9] [µM]	SMILES	IC50 [1] [µM]	Expression and metabolism of autophagy marker LC3B1/II [3]	PARP cleavage [10]	Cleavage of caspase7 and caspase-3 [10]	Levels of p53 proteins [10]	c-Myc oncogene level [10]	Levels of BAX [10]	PARP cleavage [11]	Cleavage of caspase7 and caspase-3 [11]	c-Myc oncogene level [11]	also measured
1.96 ± 0.08	3.63 ± 0.06	6.25 (≈ 13.9 µM)	3.84 ± 0.21	3.31 ± 0.12	3.12 (≈ 6.94 µM)	2.5 ± 0.13	FC(F)(F)c1ccc(N/N=C2\C=C[C@@]3(CC2)CC[C@@H]2NCCc4c2n3c2ccccc42)cc1 (racemic) [Compound 1e]	3.08 ± 0.14	upregulate	–	–	–	–	–	–	–	–	Expression of Ferritin heavy chain (FTH1) [3]: inhibits; Expression of cell cycle marker CDK6 [3]: inhibits; Expression of cellular iron exporter protein Ferroportin (FPN) [3]: inhibits
–	–	12.5 (≈ 26.8 µM)	–	–	6.25 (≈ 13.4 µM)	–	FC(F)(F)Oc1ccc(N/N=C2\C=C[C@@]3(CC2)CC[C@@H]2NCCc4c2n3c2ccccc42)cc1 [Compound 1f]	–	–	PARP cleavage	cleavage	decreased	downregulate	decreased levels	PARP cleavage	cleavage	downregulate	–
–	–	12.5 (≈ 26.9 µM)	–	–	1.56 (≈ 3.36 µM)	–	Cc1ccc2c(c1)c1c3n2[C@@]2(C=C/C(=N\Nc4ccc(C(F)(F)F)cc4)CC2)CC[C@@H]3NCC1 [Compound 1h]	–	–	PARP cleavage	cleavage	decreased	downregulate	decreased levels	PARP cleavage	cleavage	downregulate	MIC [12]: 1.56 µg/mL (≈ 3.36 µM)
4.1 ± 0.21	4.03 ± 0.16	6.25 (≈ 13 µM)	4.68 ± 0.22	4.66 ± 0.15	3.12 (≈ 6.5 µM)	2.49 ± 0.16	COc1ccc2c(c1)c1c3n2[C@@]2(C=C/C(=N\Nc4ccc(C(F)(F)F)cc4)CC2)CC[C@@H]3NCC1 [Compound 1k]	3.49 ± 0.06	upregulate	–	–	–	–	–	–	–	–	Expression of DNA damage marker pH2AX [3]: induce
